Molecular target: AKT (PH domain) (Homo sapiens, UniProt P31749)
Experiment: intrinsic fluorescence quenching
Type: binding

AKT (PH domain), sequence (P31749 1-123): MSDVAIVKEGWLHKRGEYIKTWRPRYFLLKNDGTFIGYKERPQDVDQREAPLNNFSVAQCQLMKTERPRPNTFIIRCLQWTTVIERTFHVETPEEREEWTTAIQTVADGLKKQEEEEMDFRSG

Kd	SMILES
37.9 µM	O=C(O)/C=C/c1ccc(O[C@@H]2O[C@H](C(=O)O)[C@@H](O)[C@H](O)[C@H]2O)c(O)c1 [CA4G, caffeic-4′-O-glucuronide]
183 µM	O=C(O)/C=C/c1ccc(O)c(O)c1 [CA, caffeic acid]
48.1 µM	COc1cc(/C=C/C(=O)O)ccc1O[C@@H]1O[C@H](C(=O)O)[C@@H](O)[C@H](O)[C@H]1O [FA4G, ferulic-4′-O-glucuronide]
185 µM	COc1cc(/C=C/C(=O)O)ccc1O [FA, ferulic acid]
